Source: ChEMBL document CHEMBL1201862, “PubChem BioAssay data set” (2004)
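Protocol summary: plate cells (96-well), add compound at 5 concentrations, incubate 48 h, interpolate endpoints linearly. At the GI50, growth is halved.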 Activity calls are given as the source filed them. Rule as the data show it: active = GI50 up to about 1.1 µM and inactive = higher.

Assays:
Experiment in all cases: NCI-60 cell line screen, 48 h
[1] = test system: SN12C
[2] = test system: HCT-116
[3] = test system: SF-268
[4] = test system: K562
[5] = test system: NCI-H23
[6] = test system: HCC 2998
[7] = test system: HCT-15
[8] = test system: Malme-3M
[9] = test system: UACC-257
[10] = test system: RXF 393
[11] = test system: IGROV-1
[12] = test system: NCI-H460
[13] = test system: DLD-1
[14] = test system: SK-OV-3
[15] = test system: NCI-H522

c1ccc(-c2[nH]c(-c3ccccc3)c(-c3cnccn3)c2-c2cnccn2)cc1
GI50 [1]: > 100 µM (inactive)
GI50 [2]: > 100 µM (inactive)
GI50 [3]: > 100 µM (inactive)
GI50 [4]: > 100 µM (inactive)
GI50 [5]: > 100 µM (inactive)
GI50 [6]: > 100 µM (inactive)
GI50 [7]: > 100 µM
GI50 [8]: > 100 µM (inactive)
GI50 [9]: > 100 µM (inactive)
GI50 [10]: > 100 µM (inactive)
GI50 [11]: > 100 µM (inactive)
GI50 [12]: > 100 µM (inactive)
GI50 [13]: > 100 µM (inactive)
GI50 [14]: > 100 µM (inactive)
GI50 [15]: > 100 µM (inactive)

Nc1nc2c(nnn2C2C=C(CO)C(O)C2O)c(=O)[nH]1 (stereo not given)
GI50 [1]: 94.4 µM (inactive)
GI50 [2]: > 100 µM (inactive)
GI50 [3]: > 100 µM (inactive)
GI50 [4]: > 100 µM (inactive)
GI50 [5]: > 100 µM (inactive)
GI50 [6]: > 100 µM (inactive)
GI50 [7]: > 100 µM
GI50 [8]: 95.7 µM (inactive)
GI50 [9]: > 100 µM (inactive)
GI50 [10]: 78 µM (inactive)
GI50 [11]: > 100 µM (inactive)
GI50 [12]: > 100 µM (inactive)
GI50 [13]: > 100 µM (inactive)
GI50 [14]: > 100 µM (inactive)
GI50 [15]: > 100 µM (inactive)

CCc1cccc(CC)c1NC(=O)/C(Cl)=C(/Cl)C(=O)O
GI50 [1]: 31.1 µM (inactive)
GI50 [2]: 25 µM (inactive)
GI50 [3]: 40.3 µM (inactive)
GI50 [4]: 11.6 µM (inactive)
GI50 [5]: 38.3 µM (inactive)
GI50 [6]: > 48.2 µM (inactive)
GI50 [7]: 19.4 µM
GI50 [8]: 19 µM (inactive)
GI50 [9]: 24.1 µM (inactive)
GI50 [10]: 28.9 µM (inactive)
GI50 [11]: 32.2 µM (inactive)
GI50 [12]: > 100 µM (inactive)
GI50 [13]: 22.8 µM (inactive)
GI50 [14]: > 100 µM (inactive)
GI50 [15]: 10.2 µM (inactive)

CC1=NN(C(=O)Cc2ccccc2)C(=O)/C1=C\c1ccc(O)cc1
GI50 [1]: > 100 µM (inactive)
GI50 [2]: > 100 µM (inactive)
GI50 [3]: > 100 µM (inactive)
GI50 [4]: > 100 µM (inactive)
GI50 [5]: > 100 µM (inactive)
GI50 [6]: > 100 µM (inactive)
GI50 [7]: > 100 µM
GI50 [8]: > 100 µM (inactive)
GI50 [9]: > 100 µM (inactive)
GI50 [10]: > 100 µM (inactive)
GI50 [11]: > 100 µM (inactive)
GI50 [12]: > 100 µM (inactive)
GI50 [13]: > 100 µM (inactive)
GI50 [14]: > 100 µM (inactive)
GI50 [15]: > 100 µM (inactive)

COC(=O)c1ccc(Cc2ccc(C(=O)OC)o2)o1
GI50 [1]: > 378 µM (inactive)
GI50 [2]: > 378 µM (inactive)
GI50 [3]: > 378 µM (inactive)
GI50 [4]: > 378 µM (inactive)
GI50 [5]: > 378 µM (inactive)
GI50 [6]: > 378 µM (inactive)
GI50 [7]: > 378 µM
GI50 [8]: > 378 µM (inactive)
GI50 [9]: > 378 µM (inactive)
GI50 [10]: 282 µM (inactive)
GI50 [11]: > 378 µM (inactive)
GI50 [12]: > 378 µM (inactive)
GI50 [13]: > 378 µM (inactive)
GI50 [14]: > 378 µM (inactive)
GI50 [15]: > 378 µM (inactive)

Clc1ccc(CN2COc3c(cc(Cl)c4cccnc34)C2)cc1
GI50 [1]: 4.23 µM (inactive)
GI50 [2]: 2.15 µM (inactive)
GI50 [3]: 2.93 µM (inactive)
GI50 [4]: 1.52 µM (inactive)
GI50 [5]: 2.57 µM (inactive)
GI50 [6]: 4.3 µM (inactive)
GI50 [7]: 0.456 µM
GI50 [8]: 2.34 µM (inactive)
GI50 [9]: 2.84 µM (inactive)
GI50 [10]: 1.58 µM (inactive)
GI50 [11]: 2.36 µM (inactive)
GI50 [12]: 2.29 µM (inactive)
GI50 [13]: 2.52 µM (inactive)
GI50 [14]: 2.77 µM (inactive)
GI50 [15]: 1.6 µM (inactive)

Cc1ccc(Nc2ccc(Nc3ccc(C)cc3)c3c2C(=O)c2c(O)ccc(O)c2C3=O)cc1
GI50 [1]: > 100 µM (inactive)
GI50 [2]: > 100 µM (inactive)
GI50 [3]: > 100 µM (inactive)
GI50 [4]: > 100 µM (inactive)
GI50 [5]: > 100 µM (inactive)
GI50 [6]: > 100 µM (inactive)
GI50 [7]: > 100 µM
GI50 [8]: > 100 µM (inactive)
GI50 [9]: > 100 µM (inactive)
GI50 [10]: > 100 µM (inactive)
GI50 [11]: > 100 µM (inactive)
GI50 [12]: > 100 µM (inactive)
GI50 [13]: > 100 µM (inactive)
GI50 [14]: > 100 µM (inactive)
GI50 [15]: 47.8 µM (inactive)

COC(=O)C1C(O)CC(c2ccccn2)N(Cc2ccccc2)C1c1ccccn1 (stereo not given)
GI50 [1]: > 100 µM (inactive)
GI50 [2]: 94.4 µM (inactive)
GI50 [3]: > 100 µM (inactive)
GI50 [4]: 44.4 µM (inactive)
GI50 [5]: > 100 µM (inactive)
GI50 [6]: > 100 µM (inactive)
GI50 [7]: > 100 µM
GI50 [8]: > 100 µM (inactive)
GI50 [9]: > 100 µM (inactive)
GI50 [10]: > 100 µM (inactive)
GI50 [11]: > 100 µM (inactive)
GI50 [12]: > 100 µM (inactive)
GI50 [13]: > 100 µM (inactive)
GI50 [14]: > 100 µM (inactive)
GI50 [15]: > 100 µM (inactive)
